In US8673983B2, “Melanins synthesized chemically or via enzyme catalysis” (priority 2007, dated 2014):
Values after ≈ are worked out from the molar mass of the structure shown.

Tests used:
[1] = physchem; settings: 30 °C, pH 7, aqueous buffer, thermodynamic from solid
[2] = tested on: cultured human foreskin fibroblasts
[3] = in vitro; settings: human
[4] = tested on: HSV-1; experiment: microbe, parasite or virus in culture; format: cell-based; settings: Human alphaherpesvirus 1, HFF, read-out: ACV EC50
[5] = tested on: HSV-2; experiment: microbe, parasite or virus in culture; format: cell-based; settings: Human alphaherpesvirus 2, HFF, read-out: ACV EC50
[6] = tested on: PPO enzyme (E.C. 1.10.3.1) from banana (Musa sapientum) skin; experiment: test of potential melanogenic substrates of banana PPO (pigment formation vs blank); format: biochemical; settings: pH 7

Oc1cccc(O)c1O [Pyrogallol, 1,2,3-trihydroxvbenzene]
solubility [1]: < 2000 µg/mL

Nordihydroguaiuretic acid
Toxicity [2]: N

Nc1nc(O)c2ncn(COC(CO)CO)c2n1 [GCV, ganciclovir]
CC50 [3]: > 100 µg/mL

O=c1c(O)c(-c2ccc(O)c(O)c2)oc2cc(O)cc(O)c12 [Quercetin, 2-(3,4-dihydroxyphenyl)-3,5,7-trihydroxy-4H-1-benzopyran-4-one]
solubility [1]: < 2000 µg/mL

Nc1nc2c(ncn2COCCO)c(=O)[nH]1 [ACV, Acyclovir]
EC50 [4]: 1.1 µg/mL (≈ 0.00488 mM) | EC50 [5]: 1.4 µg/mL (≈ 0.00622 mM) | CC50 [3]: > 100 µg/mL

O=C(O)Cc1ccc(O)c(O)c1 [DOPAC, 3,4-dihydroxyphenylacetic acid]
solubility [1]: > 2000 µg/mL

NCCc1c[nH]c2ccc(O)cc12 [Serotonin, 5-hydroxytryptamine]
PPO Substrate [6]: Y

O=C(O)c1cc(O)c(O)c(O)c1 [Gallic acid, 3,4,5-trihydroxybenzoic acid]
solubility [1]: < 2000 µg/mL

5,6,7 trihydroxyflavanone [Baicalein]
PPO Substrate [6]: Y

O=C1c2ccccc2C(=O)c2c1ccc(O)c2O [Alizarin, 1,2-dihydroxy-anthraquinone]
PPO Substrate [6]: Y | solubility [1]: < 2000 µg/mL

O=c1ccc2cc(O)c(O)cc2o1 [Esculetin, 6,7 Dihydroxvcoumarin]
PPO Substrate [6]: Y | solubility [1]: < 2000 µg/mL

O=C(O)C=Cc1ccc(O)c(O)c1 [Caffeic acid, 3,4-dihydroxycinnamic acid]
solubility [1]: > 2000 µg/mL

O=C(O)c1ccc(O)c(O)c1 [Protocatechuric acid, 3,4-dihydroxybenzoic acid]
PPO Substrate [6]: Y | solubility [1]: > 2000 µg/mL
